# Test results published in US12215085B2 (priority 2019, dated 2025).
# Marks after values point to notes of the source that are not given here.
# Legend:
# [1] = Dynamic moisture sorption (DVS) hygroscopicity; type: physicochemical; details: 25° C.; begins to significantly absorb water at 90% relative humidity
# Experimental: In order to evaluate the stability of Crystal Form A under different humidity conditions, a dynamic moisture sorption (DVS) test was carried out on the sample of Crystal Form A under the constant temperature condition of 25° C.
# [2] = tested on: rats with beta-amyloid induced senile dementia; assay: Brain pathological examination, beta-amyloid induced senile dementia rats; type: in vivo, rat
# [3] = Acute toxicity LD50, rat; details: in vivo, po
# [4] = tested on: rat; assay: Acute toxicity LD50, rat; details: clinical daily dosage 8 mg/60 kg human/day, per kilogram body weight
# [5] = tested on: mouse; assay: Acute toxicity LD50, mouse; details: clinical daily dosage 8 mg/60 kg human/day, per kilogram body weight
# [6] = Acute toxicity LD50, mouse; details: in vivo, po
# [7] = 24 hours equilibrium solubility in water; type: physicochemical; details: thermodynamic from solid, room temperature, initial concentration about 100 mg/mL, read-out: 24 hours equilibrium solubility in H2O
# Experimental: Step: 24 hours equilibrium solubility of the sample of Crystal Form A in water was tested at room temperature. In the experiment, after mixing the sample of crystal form with water to form a suspension (initial concentration was about 100 mg/mL), the stirring was carried out for 24 hours (1000 rpm) at room temperature, a supernatant obtained from the centrifugation was filtered and the solubility was measured, and the residual solid was subjected to the XRPD test.
# [8] = tested on: rats with beta-amyloid induced senile dementia; assay: Water maze test, beta-amyloid induced senile dementia rats; type: in vivo, rat; details: for adopted strategy for reaching the platform (the peripheral type and the random type %) / orientation angle for reaching the platform / speed for reaching the platform / swimming path length for reaching the platform / time for reaching the platform: succinate; for orientation angle for reaching the platform / speed for reaching the platform / swimming path length for reaching the platform / time for reaching the platform: x ± s
# [9] = 0.7, 1.4 and 2.8 mg/kg, Day 7, P<0.05 or P<0.01
# [10] = Day 1, 0.7 mg/kg intragastric, 0.7 mg/kg
# [11] = Day 1, 1.4 mg/kg intragastric, 1.4 mg/kg
# [12] = Day 1, 2.8 mg/kg intragastric, 2.8 mg/kg
# [13] = Day 2, 0.7 mg/kg intragastric, 0.7 mg/kg
# [14] = Day 2, 1.4 mg/kg intragastric, 1.4 mg/kg
# [15] = Day 2, 2.8 mg/kg intragastric, 2.8 mg/kg
# [16] = Day 3, 0.7 mg/kg intragastric, 0.7 mg/kg
# [17] = Day 3, 1.4 mg/kg intragastric, 1.4 mg/kg
compound,measurement,setting,value
"Nc1c2c(nc3c1CCCC3)CCCC2.O=C(O)CCC(=O)O [Crystal Form A, 9-amino-1,2,3,4,5,6,7,8-octahydroacridine succinate]",DVS weight gain,[1],up to 5.2%
same,pathological damage of cerebral cortex and hippocampus caused by beta-amyloid,[2]; high-dose group (2.8 mg/kg),could relieve the pathological damage
same,pathological changes of cortex and hippocampus compared with the model group,[2]; low and medium-dose groups (0.7 and 1.4 mg/kg),no obvious difference
same,LD50,[3],110 ± 9.1 mg/kg
same,LD50 as multiple of the clinical daily dosage,[4],~824.3 times
same,LD50 as multiple of the clinical daily dosage,[5],~499.5 times
same,LD50,[6],66.6 ± 3.3 mg/kg
same,solubility thermodynamic at 24 h,[7],72.9 mg/mL
same,latent period for reaching the platform vs model group,"[8]; 0.7 mg/kg, Day 1, P<0.05",obviously shortened
same,latent period for reaching the platform vs model group,"[8]; 1.4 mg/kg, Day 1 to Day 6, P<0.05 or P<0.01",obviously shortened
same,swimming path length for reaching the platform vs model group,"[8]; 1.4 mg/kg, Day 3 and Day 5, P<0.05",obviously shortened
same,percentage of the swimming path length in the platform area quadrants to the total swimming path length vs model group,"[8]; 1.4 mg/kg, Day 7, P<0.05",obviously increased
same,residence time in the platform quadrants vs model group,"[8]; 1.4 mg/kg, Day 7, P<0.05",obviously increased
same,orientation angle vs model group,"[8]; 2.8 mg/kg, Day 2, Day 3, Day 5 and Day 6, P<0.05 or P<0.01",obviously decreased
same,latent period for reaching the platform vs model group,"[8]; 2.8 mg/kg, Day 2 to Day 6, P<0.05 or P<0.01",obviously shortened
same,swimming path length for reaching the platform vs model group,"[8]; 2.8 mg/kg, Day 5 and Day 6, P<0.05",obviously shortened
same,swimming speed vs model group,"[8]; 0.7, 1.4 and 2.8 mg/kg, Day 1, P<0.05",obviously increased
same,average speed and orientation angle vs model group,"[8]; 0.7, 1.4 and 2.8 mg/kg, Day 7",not obviously changed
same,number of rats crossing the platform within 2 minutes vs model group,[8]; [9],obviously increased
same,residence time on the platform vs model group,[8]; [9],obviously increased
same,conversion from the peripheral type and the random type to the tendency type and the linear type in the strategy for looking for the platform,"[8]; 0.7, 1.4 and 2.8 mg/kg, P<0.05 or P<0.01",obviously increased
same,orientation angle vs model group,"[8]; 0.7 and 1.4 mg/kg, Day 2, P<0.05",obviously decreased
same,adopted strategy for reaching the platform (the peripheral type and the random type %),[8]; [10],87.50%
same,orientation angle for reaching the platform,[8]; [10],62.79 ± 19.80 °
same,speed for reaching the platform,[8]; [10],22.41 ± 7.84 cm/s
same,swimming path length for reaching the platform,[8]; [10],1169.52 ± 985.73 cm
same,time for reaching the platform,[8]; [10],51.79 ± 26.01 s
same,adopted strategy for reaching the platform (the peripheral type and the random type %),[8]; [11],92.50%
same,orientation angle for reaching the platform,[8]; [11],77.42 ± 21.94 °
same,speed for reaching the platform,[8]; [11],21.16 ± 5.82 cm/s
same,swimming path length for reaching the platform,[8]; [11],1022.59 ± 558.57 cm
same,time for reaching the platform,[8]; [11],47.00 ± 19.96 s
same,adopted strategy for reaching the platform (the peripheral type and the random type %),[8]; [12],95.50%
same,orientation angle for reaching the platform,[8]; [12],61.45 ± 13.71 °
same,speed for reaching the platform,[8]; [12],19.76 ± 2.88 cm/s
same,swimming path length for reaching the platform,[8]; [12],1215.28 ± 534.19 cm
same,time for reaching the platform,[8]; [12],65.22 ± 26.94 s
same,adopted strategy for reaching the platform (the peripheral type and the random type %),[8]; [13],68.75%
same,orientation angle for reaching the platform,[8]; [13],48.33 ± 25.33 °
same,speed for reaching the platform,[8]; [13],28.34 ± 10.42 cm/s
same,swimming path length for reaching the platform,[8]; [13],762.15 ± 878.65 cm
same,time for reaching the platform,[8]; [13],29.20 ± 28.52 s
same,adopted strategy for reaching the platform (the peripheral type and the random type %),[8]; [14],77.50%
same,orientation angle for reaching the platform,[8]; [14],53.95 ± 19.36 °
same,speed for reaching the platform,[8]; [14],24.65 ± 5.95 cm/s
same,swimming path length for reaching the platform,[8]; [14],657.63 ± 419.44 cm
same,time for reaching the platform,[8]; [14],29.60 ± 18.83 s
same,adopted strategy for reaching the platform (the peripheral type and the random type %),[8]; [15],67.50* %
same,orientation angle for reaching the platform,[8]; [15],42.58 ± 17.57 °
same,speed for reaching the platform,[8]; [15],23.62 ± 5.04 cm/s
same,swimming path length for reaching the platform,[8]; [15],717.16 ± 484.50 cm
same,time for reaching the platform,[8]; [15],27.92 ± 18.96 s
same,adopted strategy for reaching the platform (the peripheral type and the random type %),[8]; [16],87.50%
same,orientation angle for reaching the platform,[8]; [16],59.46 ± 34.15 °
same,speed for reaching the platform,[8]; [16],25.56 ± 10.30 cm/s
same,swimming path length for reaching the platform,[8]; [16],922.69 ± 927.53 cm
same,time for reaching the platform,[8]; [16],39.88 ± 39.00 s
same,adopted strategy for reaching the platform (the peripheral type and the random type %),[8]; [17],70.50%
same,orientation angle for reaching the platform,[8]; [17],49.79 ± 16.12 °
same,speed for reaching the platform,[8]; [17],23.53 ± 5.74 cm/s
same,swimming path length for reaching the platform,[8]; [17],359.75 ± 164.16 cm
same,time for reaching the platform,[8]; [17],15.74 ± 5.83 s
